Consider three compounds from publication PMC2880888 (Journal of medicinal chemistry, 2010).

In data set [1] the test system is control 1321N1 astrocytoma cells. The data set is described as follows: calcium flux in control 1321N1 astrocytoma cells. To be noted: 10 µM, non-transfected 1321N1 astrocytoma cells. Type of data set: cell-based, human.
In another data set the test system is aorta ring preparations. Particulars: cited from earlier work.
Another data set relates to CSQ-overexpressing mouse. To be noted: Alzet mini-osmotic pump; cited from earlier work.
Data set [2] can be described thus: stability of the C-O-P bond in aqueous medium at pH 1.5. It is filed as physicochemical. To be noted: aqueous medium at pH 1.5, over 24 h.
Data set [3] is described as follows: hydrolysis of the 5’-phosphate in the presence of mammalian cell membranes. It is filed as in vitro ADME. Particulars: incubation at 37°C with 1321N1 astrocytoma cell membranes (data not shown).
In the next data set the test system is cardiac P2X receptor. Particulars: cited from earlier work.

For the compound `CSc1nc(N)c2ncn([C@@H]3O[C@H](COP(=O)(O)OP(=O)(O)O)[C@@H](O)[C@H]3O)c2n1` [Compound 2-MeSADP, 2-MeSADP], the “change in intracellular Ca2+ in control cells” value in data set [1] is “no change”.
Take `Nc1nc(Cl)nc2c1ncn2[C@H]1[C@H](O)[C@H](O)[C@@]2(COP(=O)(O)O)C[C@H]12` [Compound 3, (1’S,2’R,3’S,4’R,5’S)-4-(6-amino-2-chloro-9H-purin-9-yl)-1-[phosphoryloxymethyl] bicyclo[3.1.0]hexane-2,3-diol]: the vasodilator action result in the data set with aorta ring preparations is listed as “devoid of any vasodilator action”. The “longevity compared to vehicle-injected mice” value with CSQ-overexpressing mouse is given as “significantly increased longevity”. Moreover, the “stability of the C-O-P bond” value in data set [2] is recorded as “stable”. Moreover, the “hydrolysis of the 5’-phosphate” value in data set [3] is “considerable hydrolysis”. Besides, the “current induced in the CSQ myocyte” value in the data set with cardiac P2X receptor (CSQ myocyte) was “induced a current”.
For `CNc1nc(I)nc2c1ncn2[C@H]1C[C@H](OP(=O)(O)O)[C@]2(COP(=O)(O)O)C[C@H]12` [MRS2500], the “block of the membrane current evoked by 3” value with cardiac P2X receptor (voltage clamp in mouse cardiac myocytes) is recorded as “could not block”.
